Consider 18 compounds from patent US20010031760A1, “Method of treating a patient having precancerous lesions with quinazoline derivatives” (priority 1995, published 2001).

As a reminder, the melting point is the temperature of the solid-liquid transition.

Each structure is given as a SMILES string. Counter-ions that a name gives are not always drawn.

`COc1cc2nc(N3CCN(C(=O)c4cocn4)CC3)nc(N)c2cc1OC.Cl`: the melting point is 291 to 294 °C (dec.).
With `COc1cc2nc(N3CCN(C(=O)c4coc(C)n4)CC3)nc(N)c2cc1OC.Cl`, the melting point is 278 to 280 °C (dec.).
As for `COc1cc2nc(N3CCN(C(=O)c4ocnc4C)CC3)nc(N)c2cc1OC.Cl`, the figure is 283.5 to 288 °C (dec.).
To `COc1cc2nc(N3CCN(C(=O)c4cnsc4)CC3)nc(N)c2cc1OC.Cl` belongs 286 to 287 °C (dec.); to `COc1cc2nc(N3CCN(C(=O)c4nccs4)CC3)nc(N)c2cc1OC.Cl`, 273 to 276 °C (dec.); to `COc1cc2nc(N3CCN(C(=O)c4cscn4)CC3)nc(N)c2cc1OC.Cl`, 274 to 277 °C (dec.).
For the compound `COc1cc2nc(N3CCN(C(=O)c4csc(C)n4)CC3)nc(N)c2cc1OC.Cl`, the melting point is 260 to 263 °C (dec.).
To `COc1cc2nc(N3CCN(C(=O)c4cncs4)CC3)nc(N)c2cc1OC.Cl` belongs 280 to 281 °C (dec.).
Compound `COc1cc2nc(N3CCN(C(=O)C4CCCC4)CC3)nc(NN)c2cc1OC.Cl` gave a melting point of 282 to 284 °C.
To `COc1cc2nc(N3CCN(C(=O)c4csnn4)CC3)nc(N)c2cc1OC.Cl` belongs 270 °C (dec.); to `COc1cc2nc(N3CCN(C(=O)c4cnns4)CC3)nc(N)c2cc1OC.Cl`, 295 to 297 °C.
Regarding `COc1cc2nc(N3CCN(C(=O)c4ccon4)CC3)nc(N)c2cc1OC.Cl`, the melting point is 268 to 273 °C (dec.).
For the compound `COc1cc2nc(N3CCN(C(=O)c4cnoc4)CC3)nc(N)c2cc1OC.Cl`, the melting point was 225 to 260 °C (dec.).
For the compound `COc1cc2nc(N3CCN(C(=O)c4cc(C)on4)CC3)nc(N)c2cc1OC.Cl`, the melting point was 271 to 273 °C (dec.).
As for `COc1cc2nc(N3CCN(C(=O)c4conc4C)CC3)nc(N)c2cc1OC.Cl`, the figure is 300 to 301 °C (dec.).
To `COc1cc2nc(N3CCN(C(=O)c4cc(C)no4)CC3)nc(N)c2cc1OC.Cl` belongs 263 to 264 °C (dec.).
As for `COc1cc2nc(N3CCN(C(=O)C4CCCC4)CC3)nc(N)c2cc1OC` (as salt: hydrochloride) [Example 127, 4-Amino-2-[4-(cyclopentylcarbonyl)-1-piperazinyl]-6,7-dimethoxyquinazoline], the figure is 279 to 280 °C (dec.).
`COc1cc2nc(N3CCN(C(=O)C4CC=CCC4)CC3)nc(N)c2cc1OC` (stereo not drawn) [Example 132, 4-Amino-2-[4-(3-cyclohexenylcarbonyl)-1-piperazinyl]-6,7-dimethoxyquinazoline] showed a melting point of 234 to 236 °C.
